Laboratory results reported in patent US20240270821A1, “GIP/GLP1/GCG TRI-RECEPTOR AGONISTS AND USES THEREOF” (priority 2023, published 2024).
pEC50: −log10 of the molar value. Starred links: 1 amine or outer side, 2 acyl side, 3 side chain; linkers in the order of their positions; H or OH if unused. Non-standard residues stand in square brackets, D forms with d. Residues, ends and D or L forms follow the SMILES beside them. Groups on a side chain read outwards from the residue. *: point of attachment. C18 diacid = O=C(O)CCCCCCCCCCCCCCCCC(=O)*; αMePhe(2-F) = C[C@](N)(Cc1ccccc1F)C(=O)O; γGlu = O=C(O)[C@H](CCC(=O)[*:2])N[*:1]; αMeY = C[C@](N)(Cc1ccc(O)cc1)C(=O)O; 4Pal = N[C@@H](Cc1ccncc1)C(=O)O; αMeL = CC(C)C[C@](C)(N)C(=O)O; αMeS = C[C@](N)(CO)C(=O)O; Orn = NCCC[C@H](N)C(=O)O; AEEA = NCCOCCOCC(=O)O; Aib = CC(C)(N)C(=O)O

Experiments:
Assay type in all cases: cell-based
[1] = molecular target: T1, hGIPR (Homo sapiens, UniProt P48546); assay: Functional cAMP activity in the presence of 1% HSA; details: read-out: cAMP Rel EC50, hGIPR
T1 sequence (P48546 22-466): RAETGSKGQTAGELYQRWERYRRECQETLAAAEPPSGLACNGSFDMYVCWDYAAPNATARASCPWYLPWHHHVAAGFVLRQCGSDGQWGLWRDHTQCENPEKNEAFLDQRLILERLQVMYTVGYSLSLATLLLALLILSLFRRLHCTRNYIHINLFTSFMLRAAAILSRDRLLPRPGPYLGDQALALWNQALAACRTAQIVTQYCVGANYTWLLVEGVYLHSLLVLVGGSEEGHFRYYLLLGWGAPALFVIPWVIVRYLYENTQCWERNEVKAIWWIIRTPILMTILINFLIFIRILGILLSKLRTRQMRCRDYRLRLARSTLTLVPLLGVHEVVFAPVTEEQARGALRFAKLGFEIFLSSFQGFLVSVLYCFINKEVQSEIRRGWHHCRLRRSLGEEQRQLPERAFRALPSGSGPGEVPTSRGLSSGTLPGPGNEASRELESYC

[2] = molecular target: T2, hGLP-1R (Homo sapiens, UniProt P43220); assay: Functional cAMP activation in the presence of 0.1% casein (no HSA); details: read-out: Relative cAMP EC50, hGLP-1R;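 note: intracellular cAMP rise after 30 min at 37 °C read by HTRF, normalized between buffer only (0%) and maximal control ligand (100%), four-parameter variable-slope fit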
T2 sequence (P43220 24-463): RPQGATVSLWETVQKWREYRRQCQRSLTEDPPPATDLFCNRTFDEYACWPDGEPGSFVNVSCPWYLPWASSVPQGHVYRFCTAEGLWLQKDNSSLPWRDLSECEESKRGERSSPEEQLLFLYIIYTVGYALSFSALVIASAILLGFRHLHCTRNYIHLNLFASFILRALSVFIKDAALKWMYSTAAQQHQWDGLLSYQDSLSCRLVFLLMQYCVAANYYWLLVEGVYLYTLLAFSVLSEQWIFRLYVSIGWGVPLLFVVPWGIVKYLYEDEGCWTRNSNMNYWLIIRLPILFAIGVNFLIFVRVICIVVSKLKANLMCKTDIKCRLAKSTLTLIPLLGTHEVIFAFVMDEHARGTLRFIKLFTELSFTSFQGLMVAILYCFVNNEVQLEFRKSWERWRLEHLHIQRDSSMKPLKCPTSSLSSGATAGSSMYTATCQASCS

[3] = molecular target: hGcgR (Homo sapiens, UniProt P47871); assay: as above; details: read-out: Relative cAMP EC50, hGcgR;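 note: intracellular cAMP rise after 30 min at 37 °C, read by HTRF against a cAMP standard curve, scaled from buffer only (0%) to maximal control ligand response (100%)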
Sequence of hGcgR (P47871 26-477): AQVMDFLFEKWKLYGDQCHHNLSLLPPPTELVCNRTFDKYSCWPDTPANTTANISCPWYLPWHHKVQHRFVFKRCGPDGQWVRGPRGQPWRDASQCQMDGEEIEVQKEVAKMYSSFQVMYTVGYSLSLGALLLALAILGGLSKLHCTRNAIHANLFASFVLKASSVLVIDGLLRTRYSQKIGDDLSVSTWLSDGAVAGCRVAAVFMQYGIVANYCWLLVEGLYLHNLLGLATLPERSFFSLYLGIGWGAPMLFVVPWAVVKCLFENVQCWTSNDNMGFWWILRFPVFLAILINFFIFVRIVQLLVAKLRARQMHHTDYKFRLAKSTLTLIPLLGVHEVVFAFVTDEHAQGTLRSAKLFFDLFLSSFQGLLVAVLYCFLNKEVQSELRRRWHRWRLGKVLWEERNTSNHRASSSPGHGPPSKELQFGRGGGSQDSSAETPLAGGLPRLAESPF

[4] = molecular target: T2, hGLP-1R; assay: Functional cAMP activity in the presence of 1% HSA; details: read-out: cAMP Rel EC50, hGLP-1R
[5] = molecular target: T1, hGIPR; assay: Functional cAMP activation in the presence of 0.1% casein (no HSA); details: read-out: Relative cAMP EC50, hGIPR;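 for Relative cAMP EC50, hGIPR: intracellular cAMP rise after 30 min at 37 °C read by HTRF against a standard curve, scaled between buffer alone (0%) and top control ligand concentration (100%), four-parameter fit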;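 for Relative cAMP EC50, hGcgR: intracellular cAMP rise after 30 min at 37 °C, read by HTRF against a cAMP standard curve, scaled from buffer only (0%) to maximal control ligand response (100%)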
[6] = molecular target: human GcgR (Homo sapiens, UniProt P47871); assay: Functional cAMP activity in the presence of 1% HSA; details: read-out: cAMP Rel EC50, hGcgR
Sequence of human GcgR (P47871 26-477): as above

Row | Compound | pEC50 [1] | pEC50 [2] | pEC50 [3] | pEC50 [4] | pEC50 [5] | pEC50 [6]
1 | CC[C@H](C)[C@H](NC(=O)[C@H](Cc1ccccc1)NC(=O)[C@H](CCCN)NC(=O)C(C)(C)NC(=O)[C@H](CCC(N)=O)NC(=O)[C@H](C)NC(=O)[C@H](CCCCNC(=O)CC[C@H](NC(=O)CC[C@H](NC(=O)CCCCCCCCCCCCCCCCC(=O)O)C(=O)O)C(=O)O)NC(=O)[C@H](CCCN)NC(=O)[C@H](CC(=O)O)NC(=O)[C@H](CC(C)C)NC(=O)[C@](C)(CC(C)C)NC(=O)[C@@H](NC(=O)[C@](C)(CO)NC(=O)[C@H](Cc1ccncc1)NC(=O)[C@H](CC(=O)O)NC(=O)[C@H](CO)NC(=O)[C@@H](NC(=O)[C@](C)(Cc1ccccc1F)NC(=O)[C@@H](NC(=O)CNC(=O)[C@H](CCC(N)=O)NC(=O)C(C)(C)NC(=O)[C@@H](N)Cc1ccc(O)cc1)[C@@H](C)O)[C@@H](C)O)[C@@H](C)CC)C(=O)N[C@H](CCC(=O)O)C(=O)N[C@@](C)(Cc1ccc(O)cc1)C(=O)N[C@@H](CC(C)C)C(=O)N[C@@H](CCC(N)=O)C(=O)N[C@@H](CCC(=O)O)C(=O)NCC(=O)NCC(=O)N1CCC[C@H]1C(=O)N[C@@H](CO)C(=O)N[C@@H](CO)C(=O)NCC(=O)N[C@@H](CCC(=O)O)C(=O)N1CCC[C@H]1C(=O)N1CCC[C@H]1C(=O)N1CCC[C@H]1C(=O)N[C@@H](CCC(=O)O)C(N)=O [Example 439] (H-Y[Aib]QGT[αMePhe(2-F)]TSD[4Pal][αMeS]I[αMeL]LD[Orn]K([γGlu-γGlu-C18 diacid])AQ[Aib][Orn]FI[dE][αMeY]LQEGGPSSGEPPPE-NH2) | 7.84 | 9.53 | 8.36 | 7.82 | 10.20 | 6.78
2 | CC[C@H](C)[C@H](NC(=O)[C@H](Cc1ccccc1)NC(=O)[C@H](C)NC(=O)C(C)(C)NC(=O)[C@H](CCC(N)=O)NC(=O)[C@H](C)NC(=O)[C@H](CCCCNC(=O)CC[C@H](NC(=O)CC[C@H](NC(=O)CCCCCCCCCCCCCCCCC(=O)O)C(=O)O)C(=O)O)NC(=O)[C@H](CCCCN)NC(=O)[C@H](CC(=O)O)NC(=O)[C@H](CC(C)C)NC(=O)[C@](C)(CC(C)C)NC(=O)[C@@H](NC(=O)[C@H](CO)NC(=O)[C@H](Cc1ccncc1)NC(=O)[C@H](CC(=O)O)NC(=O)[C@H](CO)NC(=O)[C@@H](NC(=O)[C@](C)(Cc1ccccc1F)NC(=O)[C@@H](NC(=O)CNC(=O)[C@H](CCC(N)=O)NC(=O)C(C)(C)NC(=O)[C@@H](N)Cc1ccc(O)cc1)[C@@H](C)O)[C@@H](C)O)[C@@H](C)CC)C(=O)N[C@@H](CCC(=O)O)C(=O)N[C@@H](Cc1ccc(O)cc1)C(=O)N[C@@H](CC(C)C)C(=O)N[C@@H](CCC(=O)O)C(=O)N[C@@H](CCC(=O)O)C(=O)NCC(=O)NCC(=O)N1CCC[C@H]1C(=O)N[C@@H](CO)C(=O)N[C@@H](CO)C(=O)NCC(=O)N[C@@H](C)C(=O)N1CCC[C@H]1C(=O)N1CCC[C@H]1C(=O)N1CCC[C@H]1C(=O)N[C@@H](CO)C(N)=O [Example 440] (H-Y[Aib]QGT[αMePhe(2-F)]TSD[4Pal]SI[αMeL]LDKK([γGlu-γGlu-C18 diacid])AQ[Aib]AFIEYLEEGGPSSGAPPPS-NH2) | 8.74 | 9.33 | 8.15 | 7.56 | 10.65 | 6.08
3 | CC[C@H](C)[C@H](NC(=O)[C@H](Cc1ccccc1)NC(=O)[C@H](C)NC(=O)C(C)(C)NC(=O)[C@H](CCC(N)=O)NC(=O)[C@H](C)NC(=O)[C@H](CCCCNC(=O)CC[C@H](NC(=O)CC[C@H](NC(=O)CCCCCCCCCCCCCCCCC(=O)O)C(=O)O)C(=O)O)NC(=O)[C@H](CCCN)NC(=O)[C@H](CC(=O)O)NC(=O)[C@H](CC(C)C)NC(=O)[C@](C)(CC(C)C)NC(=O)[C@@H](NC(=O)[C@H](CO)NC(=O)[C@H](Cc1ccncc1)NC(=O)[C@H](CC(=O)O)NC(=O)[C@H](CO)NC(=O)[C@@H](NC(=O)[C@](C)(Cc1ccccc1F)NC(=O)[C@@H](NC(=O)CNC(=O)[C@H](CCC(N)=O)NC(=O)C(C)(C)NC(=O)[C@@H](N)Cc1ccc(O)cc1)[C@@H](C)O)[C@@H](C)O)[C@@H](C)CC)C(=O)N[C@@H](CCC(=O)O)C(=O)N[C@@H](Cc1ccc(O)cc1)C(=O)N[C@@H](CC(C)C)C(=O)N[C@@H](CCC(=O)O)C(=O)N[C@@H](CCC(=O)O)C(=O)NCC(=O)NCC(=O)N1CCC[C@H]1C(=O)N[C@@H](CO)C(=O)N[C@@H](CO)C(=O)NCC(=O)N[C@@H](C)C(=O)N1CCC[C@H]1C(=O)N1CCC[C@H]1C(=O)N1CCC[C@H]1C(=O)N[C@@H](CO)C(N)=O [Example 441] (H-Y[Aib]QGT[αMePhe(2-F)]TSD[4Pal]SI[αMeL]LD[Orn]K([γGlu-γGlu-C18 diacid])AQ[Aib]AFIEYLEEGGPSSGAPPPS-NH2) | 8.71 | 9.44 | 8.10 | 7.61 | 10.62 | 6.07
4 | CC[C@H](C)[C@H](NC(=O)[C@H](Cc1ccccc1)NC(=O)[C@H](C)NC(=O)C(C)(C)NC(=O)[C@H](CCC(N)=O)NC(=O)[C@H](C)NC(=O)[C@H](CCCCNC(=O)COCCOCCNC(=O)CC[C@H](NC(=O)CCCCCCCCCCCCCCCCC(=O)O)C(=O)O)NC(=O)[C@H](CCCCN)NC(=O)[C@H](CC(=O)O)NC(=O)[C@H](CC(C)C)NC(=O)[C@](C)(CC(C)C)NC(=O)[C@@H](NC(=O)[C@H](CO)NC(=O)[C@H](Cc1ccncc1)NC(=O)[C@H](CC(=O)O)NC(=O)[C@H](CO)NC(=O)[C@@H](NC(=O)[C@](C)(Cc1ccccc1F)NC(=O)[C@@H](NC(=O)CNC(=O)[C@H](CCC(N)=O)NC(=O)C(C)(C)NC(=O)[C@@H](N)Cc1ccc(O)cc1)[C@@H](C)O)[C@@H](C)O)[C@@H](C)CC)C(=O)N[C@@H](CCC(=O)O)C(=O)N[C@@H](Cc1ccc(O)cc1)C(=O)N[C@@H](CC(C)C)C(=O)N[C@@H](CCC(=O)O)C(=O)N[C@@H](CCC(=O)O)C(=O)NCC(=O)NCC(=O)N1CCC[C@H]1C(=O)N[C@@H](CO)C(=O)N[C@@H](CO)C(=O)NCC(=O)N[C@@H](CCC(=O)O)C(=O)N1CCC[C@H]1C(=O)N1CCC[C@H]1C(=O)N1CCC[C@H]1C(=O)N[C@@H](CO)C(N)=O [Example 442] (H-Y[Aib]QGT[αMePhe(2-F)]TSD[4Pal]SI[αMeL]LDKK([AEEA-γGlu-C18 diacid])AQ[Aib]AFIEYLEEGGPSSGEPPPS-NH2; N-terminus assumed) | 8.74 | 9.57 | 8.25 | 7.62 | 10.63 | 6.47
5 | CC[C@H](C)[C@H](NC(=O)[C@H](Cc1ccccc1)NC(=O)[C@H](C)NC(=O)C(C)(C)NC(=O)[C@H](CCC(N)=O)NC(=O)[C@H](C)NC(=O)[C@H](CCCCNC(=O)COCCOCCNC(=O)CC[C@H](NC(=O)CCCCCCCCCCCCCCCCC(=O)O)C(=O)O)NC(=O)[C@H](CCCCN)NC(=O)[C@H](CC(=O)O)NC(=O)[C@H](CC(C)C)NC(=O)[C@](C)(CC(C)C)NC(=O)[C@@H](NC(=O)[C@H](CO)NC(=O)[C@H](Cc1ccncc1)NC(=O)[C@H](CC(=O)O)NC(=O)[C@H](CO)NC(=O)[C@@H](NC(=O)[C@](C)(Cc1ccccc1F)NC(=O)[C@@H](NC(=O)CNC(=O)[C@H](CCC(N)=O)NC(=O)C(C)(C)NC(=O)[C@@H](N)Cc1ccc(O)cc1)[C@@H](C)O)[C@@H](C)O)[C@@H](C)CC)C(=O)N[C@@H](CCC(=O)O)C(=O)N[C@@H](Cc1ccc(O)cc1)C(=O)N[C@@H](CC(C)C)C(=O)N[C@@H](CCC(=O)O)C(=O)N[C@@H](CCC(=O)O)C(=O)NCC(=O)NCC(=O)N1CCC[C@H]1C(=O)N[C@@H](CO)C(=O)N[C@@H](CO)C(=O)NCC(=O)N[C@@H](C)C(=O)N1CCC[C@H]1C(=O)N[C@@H](CCC(=O)O)C(=O)N1CCC[C@H]1C(=O)N[C@@H](CO)C(N)=O [Example 443] (H-Y[Aib]QGT[αMePhe(2-F)]TSD[4Pal]SI[αMeL]LDKK([AEEA-γGlu-C18 diacid])AQ[Aib]AFIEYLEEGGPSSGAPEPS-NH2) | 8.80 | 9.24 | 8.22 | 7.46 | 10.54 | 6.58
